Measured values reported in ChEMBL document CHEMBL5500371, “Arginine and tryptophan-rich dendritic antimicrobial peptides that disrupt membranes for bacterial infection in vivo” (Eur J Med Chem, 2024).
≈ marks a conversion by molar mass, not a printed value. Calls of active or inactive are those of the source. No cut-off for these calls is given here. Where a SMILES comes first, the peptide text is derived from it. Side-chain parts run from the residue outwards.

Tests used:
Escherichia coli [1] = test: Antibacterial activity against Escherichia coli ATCC 25922 assessed as inhibition of bacterial growth incubated for 20 hrs in presence of NaCl by broth microdilution method (reference value: 8 microM); assay type: functional
Bacillus subtilis = test: Antibacterial activity against Bacillus subtilis ATCC 23857 assessed as inhibition of bacterial growth incubated for 20 hrs by broth microdilution method; assay type: functional
Escherichia coli [2] = test: Antibacterial activity against Escherichia coli ATCC 25922 assessed as inhibition of bacterial growth incubated for 20 hrs by broth microdilution method; assay type: functional
Staphylococcus aureus [3] = test: Antibacterial activity against Staphylococcus aureus ATCC 25923 assessed as inhibition of bacterial growth by measuring fold increase in MIC incubated for 20 hrs in presence of NaCl by broth microdilution method relative to control; assay type: functional
[4] = Stability in mouse serum assessed as half life at 10 mM measured upto 24 hrs by RP-HPLC analysis; assay type: ADME, cell-free
[5] = Therapeutic index, ratio of MHC10 for hemolytic activity in mouse erythrocytes preincubated with 10% mouse serum for 6 hrs to MIC for Staphylococcus aureus ATCC 25923 preincubated with 10% mouse serum for 6 hrs; assay type: toxicity, cell-based
Staphylococcus aureus [6] = test: Antibacterial activity against Staphylococcus aureus ATCC 25923 assessed as inhibition of bacterial growth incubated for 20 hrs by broth microdilution method; assay type: functional
Staphylococcus aureus [7] = test: Antibacterial activity against Staphylococcus aureus ATCC 25923 assessed as inhibition of bacterial growth by measuring fold increase in MIC incubated for 20 hrs in presence of ZnCl2 by broth microdilution method relative to control; assay type: functional
Escherichia coli [8] = test: Antibacterial activity against Escherichia coli ATCC 25922 assessed as inhibition of bacterial growth preincubated with 10% mouse serum for 1 hr and measured after 20 hrs by broth microdilution method; assay type: functional; conditions: time 21 hrs
[9] = Therapeutic index, ratio of MHC10 for hemolytic activity in mouse erythrocytes preincubated with 10% mouse serum for 6 hrs to MIC for Escherichia coli ATCC 25922 preincubated with 10% mouse serum for 6 hrs; assay type: toxicity, cell-based
Escherichia coli [10] = test: Antibacterial activity against Escherichia coli ATCC 25922 assessed as inhibition of bacterial growth incubated for 20 hrs in presence of FeCl3 by broth microdilution method (reference value: 8 microM); assay type: functional
Staphylococcus aureus [11] = test: Antibacterial activity against Staphylococcus aureus ATCC 25923 assessed as inhibition of bacterial growth incubated for 20 hrs in presence of KCl by broth microdilution method (reference value: 8 microM); assay type: functional
Escherichia coli [12] = test: Antibacterial activity against Escherichia coli ATCC 25922 assessed as inhibition of bacterial growth incubated for 20 hrs in presence of KCl by broth microdilution method (reference value: 8 microM); assay type: functional
[13] = (§1) Cytotoxicity against HEK293T cells assessed as cell death measured after 1 hr by resazurin dye based analysis; assay type: toxicity, HEK-293T; conditions: human, HEK293T cells
[14] = Therapeutic index, ratio of MHC10 for hemolytic activity in mouse erythrocytes preincubated with 10% mouse serum for 1 hr to MIC for Staphylococcus aureus ATCC 25923 preincubated with 10% mouse serum for 1 hr; assay type: toxicity, cell-based
[15] = Hemolytic activity in mouse erythrocytes at 256 uM preincubated for 1 to 6 hr with 10% mouse serum and measured after 1 hr by absorbance based analysis; assay type: toxicity, cell-based, Erythrocyte; conditions: time 1-7 hrs, read-out: Activity
Escherichia coli [16] = test: Antibacterial activity against Escherichia coli ATCC 25922 assessed as inhibition of bacterial growth preincubated with 10% mouse serum for 6 hrs and measured after 20 hrs by broth microdilution method; assay type: functional; conditions: time 26 hrs
Escherichia coli [17] = test: Antibacterial activity against Escherichia coli ATCC 25922 assessed as inhibition of bacterial growth incubated for 20 hrs in presence of ZnCl2 by broth microdilution method (reference value: 8 microM); assay type: functional
Staphylococcus aureus [18] = test: Antibacterial activity against Staphylococcus aureus ATCC 25923 assessed as inhibition of bacterial growth incubated for 20 hrs in presence of ZnCl2 by broth microdilution method (reference value: 8 microM); assay type: functional
Staphylococcus aureus [19] = test: Antibacterial activity against Staphylococcus aureus ATCC 25923 assessed as inhibition of bacterial growth incubated for 20 hrs in presence of NaCl by broth microdilution method (reference value: 8 microM); assay type: functional
Staphylococcus aureus [20] = test: Antibacterial activity against Staphylococcus aureus ATCC 25923 assessed as inhibition of bacterial growth incubated for 20 hrs in presence of FeCl3 by broth microdilution method (reference value: 8 microM); assay type: functional
Staphylococcus aureus [21] = test: Antibacterial activity against Staphylococcus aureus ATCC 25923 assessed as inhibition of bacterial growth preincubated with 10% mouse serum for 6 hrs and measured after 20 hrs by broth microdilution method; assay type: functional; conditions: time 21 hrs
Staphylococcus aureus [22] = test: Antibacterial activity against Staphylococcus aureus ATCC 25923 assessed as inhibition of bacterial growth preincubated with 10% mouse serum for 1 hr and measured after 20 hrs by broth microdilution method; assay type: functional; conditions: time 21 hrs
Escherichia coli [23] = test: Antibacterial activity against Escherichia coli ATCC 25922 assessed as inhibition of bacterial growth incubated for 20 hrs in presence of MgCl2 by broth microdilution method (reference value: 8 microM); assay type: functional
Klebsiella pneumoniae = test: Antibacterial activity against Klebsiella pneumoniae ATCC 700603 assessed as inhibition of bacterial growth incubated for 20 hrs by broth microdilution method; assay type: functional
[24] = Therapeutic index, ratio of MHC10 for hemolytic activity in mouse erythrocytes preincubated with 10% mouse serum for 1 hr to MIC for Escherichia coli ATCC 25922 preincubated with 10% mouse serum for 1 hr; assay type: toxicity, cell-based
Staphylococcus aureus [25] = test: Antibacterial activity against Staphylococcus aureus ATCC 25923 assessed as inhibition of bacterial growth incubated for 20 hrs in presence of MgCl2 by broth microdilution method (reference value: 8 microM); assay type: functional
Pseudomonas aeruginosa = test: Antibacterial activity against Pseudomonas aeruginosa ATCC 27853 assessed as inhibition of bacterial growth incubated for 20 hrs by broth microdilution method; assay type: functional
Staphylococcus aureus [26] = test: Antibacterial activity against Staphylococcus aureus ATCC 25923 assessed as inhibition of bacterial growth by measuring fold increase in MIC incubated for 20 hrs in presence of FeCl3 by broth microdilution method relative to control; assay type: functional
Staphylococcus aureus [27] = test: Antibacterial activity against Staphylococcus aureus ATCC 25923 assessed as inhibition of bacterial growth by measuring fold increase in MIC incubated for 20 hrs in presence of KCl by broth microdilution method relative to control; assay type: functional
Erythrocyte = test: Hemolytic activity in mouse erythrocytes assessed as 10% hemolysis incubated for 1 hr by absorbance based analysis; assay type: toxicity, cell-based
Acinetobacter baumannii = test: Antibacterial activity against Acinetobacter baumannii ATCC 19606 assessed as inhibition of bacterial growth incubated for 20 hrs by broth microdilution method; assay type: functional
Staphylococcus aureus [28] = test: Antibacterial activity against Staphylococcus aureus ATCC 25923 assessed as inhibition of bacterial growth by measuring fold increase in MIC incubated for 20 hrs in presence of MgCl2 by broth microdilution method relative to control; assay type: functional
[29] = Systemic toxicity in male BALB/c mouse assessed as hemorrhage at 20.83 mg/kg, ip administered as single dose by H and E staining based analysis; assay type: organism-based; conditions: in vivo
[30] = Acute toxicity in male BALB/c mouse assessed as convulsions at 16.3 to 24.5 mg/kg, ip administered as single dose and measured after 60 mins; assay type: organism-based; conditions: in vivo, 1 h, dose 16.3-24.5 mg/kg
[31] = Acute toxicity in ip dosed male BALB/c mouse administered as single dose; assay type: organism-based; conditions: in vivo, ip
[32] = Systemic toxicity in male BALB/c mouse assessed as inflammatory cell infiltration at 20.83 mg/kg, ip administered as single dose by H and E staining based analysis; assay type: organism-based; conditions: in vivo
HEK-293T = test: as §1; assay type: toxicity; conditions: human, hek-293t, 1 h
[33] = Acute toxicity in male BALB/c mouse assessed as mortality rate at 24.5 mg/kg, ip administered as single dose and measured after 120 mins relative to control; assay type: organism-based; conditions: in vivo, 2 h
[34] = Acute toxicity in male BALB/c mouse assessed as animal death at 16.3 to 24.5 mg/kg, ip administered as single dose and measured after 60 mins; assay type: organism-based; conditions: in vivo, 1 h, dose 16.3-24.5 mg/kg
[35] = Systemic toxicity in male BALB/c mouse assessed as pathological changes in heart at 20.83 mg/kg, ip administered as single dose by H and E staining based analysis; assay type: organism-based; conditions: in vivo
[36] = Acute toxicity in male BALB/c mouse assessed as eye closure at 16.3 to 24.5 mg/kg, ip administered as single dose and measured after 60 mins; assay type: organism-based; conditions: in vivo, 1 h, dose 16.3-24.5 mg/kg
[37] = Systemic toxicity in male BALB/c mouse assessed as marked alveolar cavity wrinkling at 20.83 mg/kg, ip administered as single dose by H and E staining based analysis; assay type: organism-based; conditions: in vivo
[38] = Acute toxicity in male BALB/c mouse assessed as respiratory asthenia at 16.3 to 24.5 mg/kg, ip administered as single dose and measured after 60 mins; assay type: organism-based; conditions: in vivo, 1 h, dose 16.3-24.5 mg/kg
[39] = Systemic toxicity in male BALB/c mouse assessed as severe hepatocyte necrosis at 20.83 mg/kg, ip administered as single dose by H and E staining based analysis; assay type: organism-based; conditions: hepatocytes
Escherichia coli [40] = test: Resistant development in Escherichia coli assessed as increase in MIC at sub-MIC measured after 20 passages; assay type: functional, organism-based
Staphylococcus aureus [41] = test: Drug resistance, ratio of MIC for Staphylococcus aureus after 14 to 19 passages to MIC for Staphylococcus aureus after initial exposure; assay type: functional, organism-based
Escherichia coli [42] = test: Drug resistance, ratio of MIC for Escherichia coli after 14 to 19 passages to MIC for Escherichia coli after initial exposure; assay type: functional, organism-based
[43] = mouse erythrocytes, read-out: TI

**Q.** What does the source list for `N=C(N)NCCC[C@H](NC(=O)[C@H](CCCNC(=N)N)NC(=O)[C@H](CCCNC(=N)N)NC(=O)[C@H](CCCNC(=N)N)NC(=O)[C@H](CCCCNC(=O)[C@H](Cc1c[nH]c2ccccc12)NC(=O)[C@@H](N)Cc1c[nH]c2ccccc12)NC(=O)[C@H](Cc1c[nH]c2ccccc12)NC(=O)[C@@H](N)Cc1c[nH]c2ccccc12)C(N)=O` (H-WWK([Trp-Trp])RRRR-NH2)?
**A.** MIC (Escherichia coli [1]): 16 µM; MIC (Bacillus subtilis): 8 µM (≈ 12.1 µg/mL); MIC (Escherichia coli [2]): 8 µM (≈ 12.1 µg/mL); fold change (FC) (Staphylococcus aureus [3]): <=2; half-life at 10000 µM [4]: 32.4 min; selectivity ratio [5, 43]: 0.13; MIC (Staphylococcus aureus [6]): 8 µM (≈ 12.1 µg/mL); fold change (FC) (Staphylococcus aureus [7]): <=2; MIC (Escherichia coli [8]): 2 µM (≈ 3.03 µg/mL); selectivity ratio [9, 43]: 0.06; MIC (Escherichia coli [10]): 8 µM; MIC (Staphylococcus aureus [11]): 8 µM; MIC (Escherichia coli [12]): 8 µM; CC50 at 1 h [13]: > 128 µM; selectivity ratio [14, 43]: 0.5; hemolysis at 1 h, 256 µM [15]: < 10%; MIC (Escherichia coli [16]): 16 µM (≈ 24.2 µg/mL); MIC (Escherichia coli [17]): 8 µM; MIC (Staphylococcus aureus [18]): 8 µM; MIC (Staphylococcus aureus [19]): 8 µM; MIC (Staphylococcus aureus [20]): 8 µM; MIC (Staphylococcus aureus [21]): 8 µM (≈ 12.1 µg/mL); MIC (Staphylococcus aureus [22]): 2 µM (≈ 3.03 µg/mL); MIC (Escherichia coli [23]): 8 µM; MIC (Klebsiella pneumoniae): 128 µM (≈ 194 µg/mL); selectivity ratio [24, 43]: 0.5; MIC (Staphylococcus aureus [25]): 8 µM; MIC (Pseudomonas aeruginosa): 32 µM (≈ 48.5 µg/mL); fold change (FC) (Staphylococcus aureus [26]): <=2; fold change (FC) (Staphylococcus aureus [27]): <=2; MHC10 (Erythrocyte): > 256 µM; MIC (Acinetobacter baumannii): 64 µM (≈ 96.9 µg/mL); fold change (FC) (Staphylococcus aureus [28]): <=2

**Q.** For POLYMYXIN B, which Activity [29] is on record?
**A.** Its Activity is “Toxic”.

**Q.** And the Activity [30]?
**A.** Its Activity is “Toxic”.

**Q.** And the TI ([5]; erythrocytes)?
**A.** Its TI is 1.

**Q.** What about the LD50 [31] of the same compound?
**A.** Its LD50 is 20.83 mg/kg.

**Q.** What about the Activity [32] of the same compound?
**A.** Its Activity is “Toxic”.

**Q.** And the TI ([9]; erythrocytes)?
**A.** The TI was 0.5.

**Q.** And the CC50 (HEK-293T)?
**A.** Its CC50 is over 128 µM.

**Q.** And the TI ([14]; erythrocytes)?
**A.** The TI was 1.

**Q.** And the Activity [33]?
**A.** The Activity was 100%.

**Q.** What about the Activity [34] of the same compound?
**A.** Its Activity is “Toxic”.

**Q.** And the Activity [35]?
**A.** Its Activity is “Non-Toxic”.

**Q.** What about the Activity [36] of the same compound?
**A.** The Activity was “Toxic”.

**Q.** And the Activity [37]?
**A.** The Activity was “Toxic”.

**Q.** What about the TI ([24]; erythrocytes) of the same compound?
**A.** The TI was 1.

**Q.** What about the Activity [38] of the same compound?
**A.** Its Activity is “Toxic”.

**Q.** And the MHC10 (Erythrocyte)?
**A.** The MHC10 was over 256 µM.

**Q.** And the Activity [39]?
**A.** Its Activity is “Toxic”.

**Q.** With GENTAMICIN as the compound, how does the Activity (Escherichia coli [40]) read?
**A.** The Activity was “Active”.

**Q.** What about the Ratio (Staphylococcus aureus [41]) of the same compound?
**A.** Its Ratio is 32.

**Q.** And the Ratio (Escherichia coli [42])?
**A.** Its Ratio is 32.
